In US12391679B2, “Benzamide-substituted bicyclic imidazo- and pyrazolo-fused -pyridine, -pyrimide, and -pyridazine compounds for treatment of inflammatory diseases” (ONCO3R Therapeutics BV, priority 2019, dated 2025):

How the values were obtained:
SIK2 = target: T1, SIK2 (Homo sapiens, UniProt Q9H0K1); experiment: ADP-Glo kinase assay, SIK2; type: biochemical
T1 construct: purchased ThermoFisher Scientific PV4792
Summary of the method: (§1)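 Luminescent ADP-Glo readout of ADP formed. Enzyme-substrate mix with ATP, reaction 120 min at RT, then 40 min ATP depletion and 30 min detection. Controls were 1% DMSO (negative) and 10 μM staurosporine (positive), both final.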

SIK1 = target: T2, SIK1 (Homo sapiens, UniProt P57059); experiment: ADP-Glo kinase assay, SIK1; type: biochemical
T2 construct: purchased Carna Biosciences 02-131
Summary of the method: as §1

[1] = tested on: LPS-induced TNFα in monocyte-derived macrophages; experiment: MdM assay: LPS-triggered TNFα (ELISA); type: cell-based, human; conditions: Macrophage; human MdM; LPS 200 ng/mL; supernatant after 20 h; inhibition of TNFα; read-out: TNFα EC50
Summary of the method: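 TNFα secretion quantified by streptavidin-HRP/luminol sandwich ELISA in supernatants collected 20 h after LPS (200 ng/mL). Macrophages derived from magnetically isolated human CD14+ monocytes were used at day 10, with compound added 1 h before LPS; final DMSO 0.2%.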

T2 sequence (P57059 whole entry): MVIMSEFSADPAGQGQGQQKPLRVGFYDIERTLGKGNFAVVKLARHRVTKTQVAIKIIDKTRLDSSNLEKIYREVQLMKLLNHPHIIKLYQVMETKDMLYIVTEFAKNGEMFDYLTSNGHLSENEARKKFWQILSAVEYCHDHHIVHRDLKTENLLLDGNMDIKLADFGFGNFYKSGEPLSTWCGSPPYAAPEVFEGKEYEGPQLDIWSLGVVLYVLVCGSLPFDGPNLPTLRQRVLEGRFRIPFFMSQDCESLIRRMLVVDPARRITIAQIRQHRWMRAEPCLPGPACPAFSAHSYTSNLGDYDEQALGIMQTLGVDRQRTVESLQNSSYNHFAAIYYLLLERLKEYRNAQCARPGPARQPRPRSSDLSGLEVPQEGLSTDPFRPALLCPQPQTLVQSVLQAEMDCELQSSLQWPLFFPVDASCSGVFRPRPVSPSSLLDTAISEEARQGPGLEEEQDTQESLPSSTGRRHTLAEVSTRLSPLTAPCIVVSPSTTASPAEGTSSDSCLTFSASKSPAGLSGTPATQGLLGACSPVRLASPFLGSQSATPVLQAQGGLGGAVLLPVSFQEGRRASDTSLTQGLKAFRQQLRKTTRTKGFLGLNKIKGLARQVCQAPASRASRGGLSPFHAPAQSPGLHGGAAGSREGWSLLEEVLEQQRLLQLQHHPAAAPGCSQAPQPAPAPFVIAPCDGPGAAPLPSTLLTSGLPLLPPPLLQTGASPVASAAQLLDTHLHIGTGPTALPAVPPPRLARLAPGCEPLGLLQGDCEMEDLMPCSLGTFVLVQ
T1 sequence (Q9H0K1 whole entry): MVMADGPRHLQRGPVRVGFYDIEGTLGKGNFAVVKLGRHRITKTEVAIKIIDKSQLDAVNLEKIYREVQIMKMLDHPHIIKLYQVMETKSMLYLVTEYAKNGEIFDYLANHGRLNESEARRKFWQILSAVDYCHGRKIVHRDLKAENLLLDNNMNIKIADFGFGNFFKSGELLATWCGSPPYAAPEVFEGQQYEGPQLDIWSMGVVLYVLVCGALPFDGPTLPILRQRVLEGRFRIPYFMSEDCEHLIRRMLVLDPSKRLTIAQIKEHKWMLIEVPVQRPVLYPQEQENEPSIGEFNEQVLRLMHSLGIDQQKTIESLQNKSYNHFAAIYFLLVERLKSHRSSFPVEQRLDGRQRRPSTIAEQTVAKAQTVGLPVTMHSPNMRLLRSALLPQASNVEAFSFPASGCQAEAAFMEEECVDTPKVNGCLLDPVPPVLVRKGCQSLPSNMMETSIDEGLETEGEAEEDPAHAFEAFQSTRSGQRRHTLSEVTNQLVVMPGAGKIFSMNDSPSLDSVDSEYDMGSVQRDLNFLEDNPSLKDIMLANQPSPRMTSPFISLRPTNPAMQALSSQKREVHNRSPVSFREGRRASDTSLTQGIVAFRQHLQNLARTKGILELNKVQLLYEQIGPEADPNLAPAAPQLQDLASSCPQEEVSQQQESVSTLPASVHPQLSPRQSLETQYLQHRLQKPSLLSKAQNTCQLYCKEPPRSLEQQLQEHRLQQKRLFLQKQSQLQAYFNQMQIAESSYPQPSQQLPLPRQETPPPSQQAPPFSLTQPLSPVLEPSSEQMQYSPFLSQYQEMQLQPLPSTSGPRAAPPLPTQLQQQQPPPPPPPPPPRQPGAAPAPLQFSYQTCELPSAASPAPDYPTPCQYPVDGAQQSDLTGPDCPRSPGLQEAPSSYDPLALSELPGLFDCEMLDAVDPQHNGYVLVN

IC50 (SIK2) | IC50 (SIK1) | EC50 [1] | SMILES
> 500 nM | > 500 nM | 100 to 1000 nM | COc1cc(-c2cnc3cc(C(C)(C)C(C)O)ccn23)cc(OC(F)F)c1C(=O)NC1CC1 (stereo not drawn) [Cpd 172, N-cyclopropyl-2-(difluoromethoxy)-4-[7-(2-hydroxy-1,1-dimethyl-propyl)imidazo[1,2-a]pyridin-3-yl]-6-methoxy-benzamide]
100 to 500 nM | > 500 nM | 100 to 1000 nM | COc1cc(-c2cnc3cc(C4(O)CCC4)ccn23)cc(OC(F)F)c1C(=O)NC1CC1 [Cpd 173, N-cyclopropyl-2-(difluoromethoxy)-4-[7-(1-hydroxycyclobutyl)imidazo[1,2-a]pyridin-3-yl]-6-methoxy-benzamide]
100 to 500 nM | > 500 nM | 1000 to 5000 nM | COc1cc(-c2cnc3cc(C(O)CC#N)ccn23)cc(OC(F)F)c1C(=O)NC1CC1 (stereo not drawn) [Cpd 175, 4-[7-(2-cyano-1-hydroxy-ethyl)imidazo[1,2-a]pyridin-3-yl]-N-cyclopropyl-2-(difluoromethoxy)-6-methoxy-benzamide]
> 500 nM | > 500 nM | 1000 to 5000 nM | COc1cc(-c2cnc3cc(C(C)(C#N)CO)ccn23)cc(OC(F)F)c1C(=O)NC1CC1 (stereo not drawn) [Cpd 176, 4-[7-(1-cyano-2-hydroxy-1-methyl-ethyl)imidazo[1,2-a]pyridin-3-yl]-N-cyclopropyl-2-(difluoromethoxy)-6-methoxy-benzamide]
> 500 nM | > 500 nM | 1000 to 5000 nM | COc1cc(-c2cnc3cc(C4COCCN4C)ccn23)cc(OC(F)F)c1C(=O)NC1CC1 (stereo not drawn) [Cpd 193, N-cyclopropyl-2-(difluoromethoxy)-6-methoxy-4-[7-(4-methylmorpholin-3-yl)imidazo[1,2-a]pyridin-3-yl]benzamide]

Continued, molecule first:

SMILES | IC50 (SIK2) | IC50 (SIK1) | EC50 [1]
COc1cc(-c2cnc3cc(C4COC4)ccn23)cc(OC(F)F)c1C(=O)NC1CC1 [Cpd 174, N-cyclopropyl-2-(difluoromethoxy)-6-methoxy-4-[7-(oxetan-3-yl)imidazo[1,2-a]pyridin-3-yl]benzamide] | 10 to 100 nM | 100 to 500 nM | 100 to 1000 nM
COCC(C)(C#N)c1ccn2c(-c3cc(OC)c(C(=O)NC4CC4)c(OC(F)F)c3)cnc2c1 (stereo not drawn) [Cpd 195, 4-[7-(1-cyano-2-methoxy-1-methyl-ethyl)imidazo[1,2-a]pyridin-3-yl]-N-cyclopropyl-2-(difluoromethoxy)-6-methoxy-benzamide] | > 500 nM | > 500 nM | 100 to 1000 nM
COc1cc(-c2cnc3cc(C4(O)CCC4)ccn23)cc(OC(F)F)c1C(=O)N[C@@H]1C[C@@H]1F [Cpd 205, 2-(difluoromethoxy)-N-[(1R,2S)-2-fluorocyclopropyl]-4-[7-(1-hydroxycyclobutyl)imidazo[1,2-a]pyridin-3-yl]-6-methoxy-benzamide] | 100 to 500 nM | > 500 nM | 100 to 1000 nM
COc1cc(-c2cnc3cc(C4COC4)ccn23)cc(OC(F)F)c1C(=O)N[C@@H]1C[C@@H]1F [Cpd 206, 2-(difluoromethoxy)-N-[(1R,2S)-2-fluorocyclopropyl]-6-methoxy-4-[7-(oxetan-3-yl)imidazo[1,2-a]pyridin-3-yl]benzamide] | 10 to 100 nM | 100 to 500 nM | 100 to 1000 nM
COc1cc(-c2cnc3cc(C4(F)COC4)ccn23)cc(OC(F)F)c1C(=O)NC1CC1 [Cpd 207, N-cyclopropyl-2-(difluoromethoxy)-4-[7-(3-fluorooxetan-3-yl)imidazo[1,2-a]pyridin-3-yl]-6-methoxy-benzamide] | 100 to 500 nM | > 500 nM | 100 to 1000 nM
COc1cc(-c2cnn3cc(C(C)(C)C#N)ccc23)cc(OC(F)F)c1C(=O)NC1CC1 [Cpd 208, 4-[6-(1-cyano-1-methyl-ethyl)pyrazolo[1,5-a]pyridin-3-yl]-N-cyclopropyl-2-(difluoromethoxy)-6-methoxy-benzamide] | > 500 nM | > 500 nM | 100 to 1000 nM
